Measurements: PubChem BioAssay AID2060626 (Molecular Pharmacology Branch, DTP, NCI, 2025)

test system: 168753-222-R-J1-PDC complex spheroid viability; assay: Anticancer human tumor 168753-222-R-J1-PDC patient-derived bladder carcinoma cell line growth inhibition [CLK]; settings: curve of first compound; second compound 10 µM
Summary of the method: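 Multi-cell-type spheroids combined patient-derived tumor cells with HUVEC endothelial cells and human mesenchymal stem cells. Paired agents were dosed in half-log steps down from about clinical Cmax, or from 10 microM where Cmax was unknown.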
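Also: viability measured after seven days of drug exposure.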
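For viability, T/C in this document: luminescence signal used as surrogate for viable cell amount; 100% = DMSO vehicle control wells.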

SMILES	IC50
C=C(F)C(=O)N1CCN(c2nc(OCC3CCCN3C)nc3c2CCN(c2cccc4cccc(Cl)c24)C3)CC1CC#N (stereo unspecified) + CNC(=O)c1ccc(Nc2nc(OC3CCCC3)c3c(-c4ccc5nc(C)oc5c4)c[nH]c3n2)c(OC)c1	< 31.6 nM
CC(CO)NC(=O)c1cc(-c2ccc(Cl)cc2)nn(-c2cnn(C)c2)c1=O (stereo unspecified) + CNC(=O)c1ccc(Nc2nc(OC3CCCC3)c3c(-c4ccc5nc(C)oc5c4)c[nH]c3n2)c(OC)c1	< 31.6 nM
CC(Nc1ccc2c(c1)OCCn1cc(N3C(=O)OCC3C(F)F)nc1-2)C(N)=O (stereo unspecified) + CNC(=O)c1ccc(Nc2nc(OC3CCCC3)c3c(-c4ccc5nc(C)oc5c4)c[nH]c3n2)c(OC)c1	< 31.6 nM
COc1c(OCCCN2CCOCC2)ccc2c3n(c(=NC(=O)c4cnc(N)nc4)nc12)CCN3 + CNC(=O)c1ccc(Nc2nc(OC3CCCC3)c3c(-c4ccc5nc(C)oc5c4)c[nH]c3n2)c(OC)c1	< 3.16 nM

same assay, conditions: second compound 0.0316 µM; first compound 0.00316 µM; stronger effect = lower value

SMILES	viability, T/C
COc1c(OCCCN2CCOCC2)ccc2c3n(c(=NC(=O)c4cnc(N)nc4)nc12)CCN3 + CNC(=O)c1ccc(Nc2nc(OC3CCCC3)c3c(-c4ccc5nc(C)oc5c4)c[nH]c3n2)c(OC)c1	96.5%

same assay, conditions: second compound 0.0316 µM; first compound 0.01 µM; stronger effect = lower value

SMILES	viability, T/C
COc1c(OCCCN2CCOCC2)ccc2c3n(c(=NC(=O)c4cnc(N)nc4)nc12)CCN3 + CNC(=O)c1ccc(Nc2nc(OC3CCCC3)c3c(-c4ccc5nc(C)oc5c4)c[nH]c3n2)c(OC)c1	56.4%

same assay, conditions: second compound 0.0316 µM; first compound 0.0316 µM; stronger effect = lower value

SMILES	viability, T/C
C#Cc1c(F)ccc2cc(O)cc(-c3ncc4c(N5CC6CCC(C5)N6)nc(OCC56CCCN5CC(F)C6)nc4c3F)c12 (stereo unspecified) + CNC(=O)c1ccc(Nc2nc(OC3CCCC3)c3c(-c4ccc5nc(C)oc5c4)c[nH]c3n2)c(OC)c1	106%
C=C(F)C(=O)N1CCN(c2nc(OCC3CCCN3C)nc3c2CCN(c2cccc4cccc(Cl)c24)C3)CC1CC#N (stereo unspecified) + CNC(=O)c1ccc(Nc2nc(OC3CCCC3)c3c(-c4ccc5nc(C)oc5c4)c[nH]c3n2)c(OC)c1	104%
CC(CO)NC(=O)c1cc(-c2ccc(Cl)cc2)nn(-c2cnn(C)c2)c1=O (stereo unspecified) + CNC(=O)c1ccc(Nc2nc(OC3CCCC3)c3c(-c4ccc5nc(C)oc5c4)c[nH]c3n2)c(OC)c1	117%
CC(Nc1ccc2c(c1)OCCn1cc(N3C(=O)OCC3C(F)F)nc1-2)C(N)=O (stereo unspecified) + CNC(=O)c1ccc(Nc2nc(OC3CCCC3)c3c(-c4ccc5nc(C)oc5c4)c[nH]c3n2)c(OC)c1	93.1%
COc1c(OCCCN2CCOCC2)ccc2c3n(c(=NC(=O)c4cnc(N)nc4)nc12)CCN3 + CNC(=O)c1ccc(Nc2nc(OC3CCCC3)c3c(-c4ccc5nc(C)oc5c4)c[nH]c3n2)c(OC)c1	17.8%

same assay, conditions: second compound 0.0316 µM; first compound 0.1 µM; stronger effect = lower value

SMILES	viability, T/C
C#Cc1c(F)ccc2cc(O)cc(-c3ncc4c(N5CC6CCC(C5)N6)nc(OCC56CCCN5CC(F)C6)nc4c3F)c12 (stereo unspecified) + CNC(=O)c1ccc(Nc2nc(OC3CCCC3)c3c(-c4ccc5nc(C)oc5c4)c[nH]c3n2)c(OC)c1	99.4%
C=C(F)C(=O)N1CCN(c2nc(OCC3CCCN3C)nc3c2CCN(c2cccc4cccc(Cl)c24)C3)CC1CC#N (stereo unspecified) + CNC(=O)c1ccc(Nc2nc(OC3CCCC3)c3c(-c4ccc5nc(C)oc5c4)c[nH]c3n2)c(OC)c1	120%
CC(CO)NC(=O)c1cc(-c2ccc(Cl)cc2)nn(-c2cnn(C)c2)c1=O (stereo unspecified) + CNC(=O)c1ccc(Nc2nc(OC3CCCC3)c3c(-c4ccc5nc(C)oc5c4)c[nH]c3n2)c(OC)c1	99.4%
CC(Nc1ccc2c(c1)OCCn1cc(N3C(=O)OCC3C(F)F)nc1-2)C(N)=O (stereo unspecified) + CNC(=O)c1ccc(Nc2nc(OC3CCCC3)c3c(-c4ccc5nc(C)oc5c4)c[nH]c3n2)c(OC)c1	71%
COc1c(OCCCN2CCOCC2)ccc2c3n(c(=NC(=O)c4cnc(N)nc4)nc12)CCN3 + CNC(=O)c1ccc(Nc2nc(OC3CCCC3)c3c(-c4ccc5nc(C)oc5c4)c[nH]c3n2)c(OC)c1	13.7%

same assay, conditions: second compound 0.0316 µM; first compound 0.316 µM; stronger effect = lower value

SMILES	viability, T/C
C#Cc1c(F)ccc2cc(O)cc(-c3ncc4c(N5CC6CCC(C5)N6)nc(OCC56CCCN5CC(F)C6)nc4c3F)c12 (stereo unspecified) + CNC(=O)c1ccc(Nc2nc(OC3CCCC3)c3c(-c4ccc5nc(C)oc5c4)c[nH]c3n2)c(OC)c1	107%
C=C(F)C(=O)N1CCN(c2nc(OCC3CCCN3C)nc3c2CCN(c2cccc4cccc(Cl)c24)C3)CC1CC#N (stereo unspecified) + CNC(=O)c1ccc(Nc2nc(OC3CCCC3)c3c(-c4ccc5nc(C)oc5c4)c[nH]c3n2)c(OC)c1	102%
CC(CO)NC(=O)c1cc(-c2ccc(Cl)cc2)nn(-c2cnn(C)c2)c1=O (stereo unspecified) + CNC(=O)c1ccc(Nc2nc(OC3CCCC3)c3c(-c4ccc5nc(C)oc5c4)c[nH]c3n2)c(OC)c1	94.4%
CC(Nc1ccc2c(c1)OCCn1cc(N3C(=O)OCC3C(F)F)nc1-2)C(N)=O (stereo unspecified) + CNC(=O)c1ccc(Nc2nc(OC3CCCC3)c3c(-c4ccc5nc(C)oc5c4)c[nH]c3n2)c(OC)c1	20.2%
COc1c(OCCCN2CCOCC2)ccc2c3n(c(=NC(=O)c4cnc(N)nc4)nc12)CCN3 + CNC(=O)c1ccc(Nc2nc(OC3CCCC3)c3c(-c4ccc5nc(C)oc5c4)c[nH]c3n2)c(OC)c1	8.52%

same assay, conditions: second compound 0.0316 µM; first compound 1 µM; stronger effect = lower value

SMILES	viability, T/C
C#Cc1c(F)ccc2cc(O)cc(-c3ncc4c(N5CC6CCC(C5)N6)nc(OCC56CCCN5CC(F)C6)nc4c3F)c12 (stereo unspecified) + CNC(=O)c1ccc(Nc2nc(OC3CCCC3)c3c(-c4ccc5nc(C)oc5c4)c[nH]c3n2)c(OC)c1	99.2%
C=C(F)C(=O)N1CCN(c2nc(OCC3CCCN3C)nc3c2CCN(c2cccc4cccc(Cl)c24)C3)CC1CC#N (stereo unspecified) + CNC(=O)c1ccc(Nc2nc(OC3CCCC3)c3c(-c4ccc5nc(C)oc5c4)c[nH]c3n2)c(OC)c1	102%
CC(CO)NC(=O)c1cc(-c2ccc(Cl)cc2)nn(-c2cnn(C)c2)c1=O (stereo unspecified) + CNC(=O)c1ccc(Nc2nc(OC3CCCC3)c3c(-c4ccc5nc(C)oc5c4)c[nH]c3n2)c(OC)c1	97.2%
CC(Nc1ccc2c(c1)OCCn1cc(N3C(=O)OCC3C(F)F)nc1-2)C(N)=O (stereo unspecified) + CNC(=O)c1ccc(Nc2nc(OC3CCCC3)c3c(-c4ccc5nc(C)oc5c4)c[nH]c3n2)c(OC)c1	15.5%
COc1c(OCCCN2CCOCC2)ccc2c3n(c(=NC(=O)c4cnc(N)nc4)nc12)CCN3 + CNC(=O)c1ccc(Nc2nc(OC3CCCC3)c3c(-c4ccc5nc(C)oc5c4)c[nH]c3n2)c(OC)c1	1.96%
